Here are results for seven molecules from publication PMC10962542, “Inhibition of Aurora‐A/N‐Myc Protein–Protein Interaction Using Peptidomimetics: Understanding the Role of Peptide Cyclization” (Chembiochem, 2023).

The test system of one data set is N‐Myc protein levels. Conditions: cited from earlier work. From the text:
(§1) Similarly, Weiss and co‐workers developed a series of conformation‐disrupting Aurora‐A inhibitors based on diaminopyrimidine and pyrazolopyrimidine scaffolds, such as CD532.[8]

The nature of a further data set: circular dichroism. Further details: unit not given here. The conditions noted are these: 25 mM Tris, 150 mM NaCl, 5 mM MgCl2; pH 7.5; 5 °C; 30-120 uM.
Data set [1] addresses T1, N‐Myc/Aurora‐A interaction (Aurora‐A122‐403‐C290A/C393A) (Homo sapiens, UniProt O14965, C290A/C393A).
T1 construct: Aurora‐A 122‐403‐C290A/C393A protein was produced as described previously; made in house
T1 sequence (O14965 122-403 C290A/C393A): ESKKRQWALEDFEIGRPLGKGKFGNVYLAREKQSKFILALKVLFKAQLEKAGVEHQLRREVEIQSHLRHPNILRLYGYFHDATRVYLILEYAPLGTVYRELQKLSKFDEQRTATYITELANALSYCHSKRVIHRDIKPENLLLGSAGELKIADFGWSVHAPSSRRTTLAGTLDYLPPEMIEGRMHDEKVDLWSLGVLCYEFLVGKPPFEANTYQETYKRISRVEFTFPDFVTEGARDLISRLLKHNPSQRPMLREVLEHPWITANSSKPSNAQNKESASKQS
Briefly: competition fluorescence anisotropy (FA) assay against fluorescein labelled N‐Myc61‐89. Note: equilibrated 2 h at room temperature. In kind it is binding. Conditions: SD.

The nature of data set [2]: circular dichroism (CD) spectroscopy. Conditions: 150 mM NaCl, 5 mM MgCl2, pH 7.5, 5 °C, n=2, free‐thiol (red) samples with 5 mol equivalents TCEP; for MRE222 (mean residue ellipticity at 222 nm): 25 mM Tris, mean ± SD, SD; for % Helicity (estimated): from MRE222 by equation 7, 25 mM Tris. In kind it is physicochemical. In a few lines: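 Peptides at 30–120 μM in 25 mM Tris, 150 mM NaCl, 5 mM MgCl2, pH 7.5 (plus 5 mol eq. TCEP for free sulfhydryl peptides) were scanned in duplicate at 5 °C from 290 to 180 nm, 1 mm pathlength. Buffer-subtracted ellipticity gave mean residue ellipticity, and % helicity was estimated from MRE at 222 nm.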

In data set [3] the test system is N‐Myc/Aurora‐A interaction. Conditions: competition co‐precipitation; cited from earlier work.
Excerpt: as §1

The next data set relates to Aurora‐A and N‐Myc. Conditions: in comparison to established allosteric Aurora‐A inhibitors; cited from earlier work.
Excerpt: as §1

Marks after values point to notes of the source that are not given here. Where a SMILES comes first, the peptide text is derived from it.

With `O=C(Nc1ccc(Nc2nccc(Nc3cc(C4CCCC4)[nH]n3)n2)cc1)Nc1cccc(C(F)(F)F)c1` [CD532], the “N‐Myc protein levels in xenographs” value with N‐Myc protein levels is “reduced N‐Myc protein levels”.

In turn, `CSCC[C@H](NC(=O)[C@H](CCC(=O)O)NC(=O)[C@@H](NC(=O)[C@@H](NC(=O)[C@H](Cc1c[nH]c2ccccc12)NC(=O)[C@H](CO)NC(=O)[C@@H]1CCCN1C(=O)[C@@H]1CCCN1C(=O)[C@H](CCC(=O)O)NC(C)=O)C(C)C)[C@@H](C)O)C(=O)N[C@@H](CC(C)C)C(=O)N[C@@H](CC(C)C)C(=O)N[C@@H](CCC(=O)O)C(=O)N[C@@H](CS)C(=O)N[C@@H](CCC(=O)O)C(=O)N[C@@H](CC(C)C)C(=O)N[C@@H](Cc1c[nH]c2ccccc12)C(=O)N[C@@H](CS)C(=O)N[C@@H](CO)C(=O)N1CCC[C@H]1C(=O)N[C@@H](C)C(=O)N[C@@H](CCC(=O)O)C(=O)N[C@@H](CCC(=O)O)C(N)=O` [N‐Myc73‐94‐N85C/G89C (red)] (Ac-EPPSWVTEMLLECELWCSPAEE-NH2) registered a helicity in the data set “circular dichroism” of -4380. The molecule further gave an IC50 in data set [1] of 123 ± 10 µM. Further, in data set [2], the “MRE222 (mean residue ellipticity at 222 nm)” value (shortened to “MRE222”) was −4383±64^[e] deg cm^−1 dmol^−1 res^−1 and the “% Helicity (estimated)” value is listed as 13±1%.

Regarding `O=C(O)c1ccc(Nc2ncc3c(n2)-c2ccc(Cl)cc2C(c2c(F)cccc2F)=NC3)cc1` [MLN8054], the “disruption of the N‐Myc/Aurora‐A interaction” value in data set [3] was “disrupted”.

Take `CSCC[C@H](NC(=O)[C@H](CCC(=O)O)NC(=O)[C@@H](NC(=O)[C@@H](NC(=O)[C@H](Cc1c[nH]c2ccccc12)NC(=O)[C@H](CO)NC(=O)[C@@H]1CCCN1C(=O)[C@@H]1CCCN1C(=O)[C@H](CCC(=O)O)NC(C)=O)C(C)C)[C@@H](C)O)C(=O)N[C@@H](CC(C)C)C(=O)N[C@@H](CC(C)C)C(=O)N[C@@H](CCC(=O)O)C(=O)N[C@@H](CC(N)=O)C(=O)N[C@@H](CCC(=O)O)C(=O)N[C@@H](CC(C)C)C(=O)N[C@@H](Cc1c[nH]c2ccccc12)C(=O)NCC(=O)N[C@@H](CO)C(=O)N1CCC[C@H]1C(=O)N[C@@H](C)C(=O)N[C@@H](CCC(=O)O)C(=O)N[C@@H](CCC(=O)O)C(N)=O` [N‐Myc73‐94]: the helicity in “circular dichroism” was -4240. In addition, the IC50 in data set [1] worked out at 199 ± 13 µM. In data set [2], the “MRE222” value is on record as −4235±181 deg cm^−1 dmol^−1 res^−1 and the “% Helicity (estimated)” value is recorded as 13±1%.

Turning to Ac-SWVTEMLLENELWG-NH2 [N‐Myc76‐89], the helicity in “circular dichroism” was -4340. This molecule also returned an IC50 in data set [1] of 215 ± 11 µM. Moreover, in data set [2], the “MRE222” value is recorded as −4342±142 deg cm^−1 dmol^−1 res^−1 and the “% Helicity (estimated)” value was 14±1%.

On to `CN(C)C(=O)c1cc2cnc(Nc3ccc(C(=O)NCCCCCCOc4cccc5c4C(=O)N(C4CCC(=O)NC4=O)C5=O)cc3)nc2n1C1CCCC1` (stereo not shown) [HLB‐0532259], for which, in the data set on Aurora‐A and N‐Myc, the “degradation of Aurora‐A and N‐Myc” value is “promote degradation of Aurora‐A and N‐Myc with superior potency”.

`CSCC[C@H](NC(=O)[C@H](CCC(=O)O)NC(=O)[C@@H](NC(=O)[C@@H](NC(=O)[C@H](Cc1c[nH]c2ccccc12)NC(=O)[C@H](CO)NC(=O)[C@@H]1CCCN1C(=O)[C@@H]1CCCN1C(=O)[C@H](CO)NC(C)=O)C(C)C)[C@@H](C)O)C(=O)N[C@@H](CC(C)C)C(=O)N[C@@H](CC(C)C)C(=O)N[C@@H](CCC(=O)O)C(=O)N[C@@H](CC(N)=O)C(=O)N[C@@H](CCC(=O)O)C(=O)N[C@@H](CC(C)C)C(=O)N[C@@H](Cc1c[nH]c2ccccc12)C(=O)NCC(N)=O` [N‐Myc73‐89‐E73S] returned a helicity in “circular dichroism” of -5540. The same molecule returned an IC50 in data set [1] of 217 ± 13 µM. In data set [2], the “MRE222” value is listed as −5541±66 deg cm^−1 dmol^−1 res^−1 and the “% Helicity (estimated)” value is 17±1%.
